Source: patent publication US11033539B2, “Compounds of formulas (VII), (VIII), (IX), (XI), (XII), (XIII), and (XIV) as muscarinic receptor 4(M4) antagonists for treating neurological diseases” (Neurocrine Biosciences, Inc., priority 2015, dated 2021)

Target: human M4 receptor (Homo sapiens (Human), UniProt P08173)
Assay: Radioligand (tritiated N-methylscopolamine) binding assay, M4
Conditions: Ki against the M4 receptor; membranes from CHO cells expressing human M4; tritiated N-methylscopolamine 1.5 nM; read-out: Ki
Procedure, shortened: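 Membranes from CHO cells expressing the receptor were incubated with 1.5 nM radioligand and twelve compound concentrations (10 μM to […]) for 90 min at 37 °C in 50 mM HEPES, 100 mM NaCl, 5 mM MgCl2, 1 mM EDTA, pH 7.4. Bound radioligand was collected by filtration and counted, and Ki was derived from inhibition.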

human M4 receptor, sequence (P08173 whole entry): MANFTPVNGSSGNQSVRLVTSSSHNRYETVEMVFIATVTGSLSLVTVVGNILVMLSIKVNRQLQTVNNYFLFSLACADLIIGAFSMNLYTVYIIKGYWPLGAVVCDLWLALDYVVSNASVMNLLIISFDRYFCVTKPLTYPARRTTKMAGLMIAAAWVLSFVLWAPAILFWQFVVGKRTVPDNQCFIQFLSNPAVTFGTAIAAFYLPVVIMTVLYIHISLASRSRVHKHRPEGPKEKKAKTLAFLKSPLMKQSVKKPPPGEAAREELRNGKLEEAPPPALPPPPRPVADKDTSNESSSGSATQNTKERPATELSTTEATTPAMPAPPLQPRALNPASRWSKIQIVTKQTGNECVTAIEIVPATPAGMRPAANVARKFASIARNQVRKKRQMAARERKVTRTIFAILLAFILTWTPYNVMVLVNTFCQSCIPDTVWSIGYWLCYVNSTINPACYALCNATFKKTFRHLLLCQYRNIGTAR

## C[C@@H]1CN(c2cnc(C(F)(F)F)nc2)C[C@H](C)N1C(=O)NCCC1CCN(Cc2ccc(N(C)C)cc2)CC1 [6-53, (2R,6S)-N-[2-(1-{[4-(dimethylamino)phenyl]methyl}piperidin-4-yl)ethyl]-2,6-dimethyl-4-[2-(trifluoromethyl)pyrimidin-5-yl]piperazine-1-carboxamide]
  Ki: 0.01 to 0.1 µM

## C[C@@H]1CN(c2cnc(C(F)(F)F)nc2)C[C@H](C)N1C(=O)NCCC1CCN(Cc2ccc(O)cc2)CC1 [6-54, (2R,6S)-N-(2-{1-[(4-hydroxyphenyl)methyl]piperidin-4-yl}ethyl)-2,6-dimethyl-4-[2-(trifluoromethyl)pyrimidin-5-yl]piperazine-1-carboxamide]
  Ki: 0.01 to 0.1 µM

## C[C@@H]1CN(c2cnc(C(F)(F)F)nc2)C[C@H](C)N1C(=O)NCCC1CCN(Cc2ccc(F)cc2)CC1 [6-55, (2R,6S)-N-(2-{1-[(4-fluorophenyl)methyl]piperidin-4-yl}ethyl)-2,6-dimethyl-4-[2-(trifluoromethyl)pyrimidin-5-yl]piperazine-1-carboxamide]
  Ki: 0.01 to 0.1 µM

## C[C@@H]1CN(c2cnc(C(F)(F)F)nc2)C[C@H](C)N1C(=O)NCCC1CCN(CCc2ccccc2)CC1 [6-56, (2R,6S)-2,6-dimethyl-N-{2-[1-(2-phenylethyl)piperidin-4-yl]ethyl}-4-[2-(trifluoromethyl)pyrimidin-5-yl]piperazine-1-carboxamide]
  Ki: 0.01 to 0.1 µM

## Cc1cc(CN2CCC(CCNC(=O)N3[C@H](C)CN(c4ncc(C#N)cn4)C[C@@H]3C)CC2)ccc1O [6-57, (2R,6S)-4-(5-cyanopyrimidin-2-yl)-N-(2-{1-[(4-hydroxy-3-methylphenyl)methyl]piperidin-4-yl}ethyl)-2,6-dimethylpiperazine-1-carboxamide]
  Ki: 0.01 to 0.1 µM

## C[C@@H]1CN(c2ncc(C#N)cn2)C[C@H](C)N1C(=O)NCCC1CCN(Cc2ncccn2)CC1 [6-58, (2R,6S)-4-(5-cyanopyrimidin-2-yl)-2,6-dimethyl-N-{2-[1-(pyrimidin-2-ylmethyl)piperidin-4-yl]ethyl}piperazine-1-carboxamide]
  Ki: 0.1 to 1 µM

## COc1cccc(CN2CCC(CCNC(=O)N3[C@H](C)CN(c4ncc(C#N)cn4)C[C@@H]3C)CC2)c1 [6-59, (2R,6S)-4-(5-cyanopyrimidin-2-yl)-N-(2-{1-[(3-methoxyphenyl)-methyl]piperidin-4-yl}ethyl)-2,6-dimethylpiperazine-1-carboxamide]
  Ki: 0.01 to 0.1 µM

## C[C@@H]1CN(c2ncc(C#N)cn2)C[C@H](C)N1C(=O)NCCC1CCN(Cc2ccc3occc3c2)CC1 [6-60, (2R,6S)-N-{2-[1-(1-benzofuran-5-ylmethyl)piperidin-4-yl]ethyl}-4-(5-cyanopyrimidin-2-yl)-2,6-dimethylpiperazine-1-carboxamide]
  Ki: 0.01 to 0.1 µM

## C[C@@H]1CN(c2ncc(C#N)cn2)C[C@H](C)N1C(=O)NCCC1CCN(Cc2cccnc2)CC1 [6-61, (2R,6S)-4-(5-cyanopyrimidin-2-yl)-2,6-dimethyl-N-{2-[1-(pyridin-3-ylmethyl)piperidin-4-yl]ethyl}piperazine-1-carboxamide]
  Ki: 0.1 to 1 µM

## C[C@@H]1CN(c2ncc(C#N)cn2)C[C@H](C)N1C(=O)NCCC1CCN(Cc2ccncc2)CC1 [6-62, (2R,6S)-4-(5-cyanopyrimidin-2-yl)-2,6-dimethyl-N-{2-[1-(pyridin-4-ylmethyl)piperidin-4-yl]ethyl}piperazine-1-carboxamide]
  Ki: 0.1 to 1 µM

## C[C@@H]1CN(c2ncc(C#N)cn2)C[C@H](C)N1C(=O)NCCC1CCN(Cc2ccc(B(O)O)cc2)CC1 [6-63, (4-{[4-(2-{[(2R,6S)-4-(5-cyanopyrimidin-2-yl)-2,6-dimethyl-piperazine-1-carbonyl]amino}ethyl)piperidin-1-yl]methyl}phenyl)boronic acid]
  Ki: 0.1 to 1 µM

## C[C@@H]1CN(c2ncc(C#N)cn2)C[C@H](C)N1C(=O)NCCC1CCN(Cc2cccnc2F)CC1 [6-64, (2R,6S)-4-(5-cyanopyrimidin-2-yl)-N-(2-{1-[(2-fluoropyridin-3-yl)methyl]piperidin-4-yl}ethyl)-2,6-dimethylpiperazine-1-carboxamide]
  Ki: 0.1 to 1 µM

## COc1ccc(CN2CCC(CCNC(=O)N3[C@H](C)CN(c4ncc(C#N)cn4)C[C@@H]3C)CC2)cc1 [6-65, (2R,6S)-4-(5-cyanopyrimidin-2-yl)-N-(2-{1-[(4-methoxyphenyl)-methyl]piperidin-4-yl}ethyl)-2,6-dimethylpiperazine-1-carboxamide]
  Ki: 0.01 to 0.1 µM

## C[C@@H]1CN(c2ncc(C#N)cn2)C[C@H](C)N1C(=O)NCCC1CCN(Cc2ccc3c(c2)nnn3C)CC1 [6-66, (2R,6S)-4-(5-cyanopyrimidin-2-yl)-2,6-dimethyl-N-(2-{1-[(1-methyl-1H-1,2,3-benzotriazol-5-yl)methyl]piperidin-4-yl}ethyl)piperazine-1-carboxamide]
  Ki: 0.1 to 1 µM

## COc1ccccc1CN1CCC(CCNC(=O)N2[C@H](C)CN(c3ncc(C#N)cn3)C[C@@H]2C)CC1 [6-67, (2R,6S)-4-(5-cyanopyrimidin-2-yl)-N-(2-{1-[(2-methoxyphenyl)-methyl]piperidin-4-yl}ethyl)-2,6-dimethylpiperazine-1-carboxamide]
  Ki: 0.01 to 0.1 µM

## C[C@@H]1CN(c2ccc(F)c(C#N)c2)CCN1C(=O)NCCC1(CO)CCN(Cc2ccccc2)CC1 [7-2, (2R)-N-{2-[1-benzyl-4-(hydroxymethyl)piperidin-4-yl]ethyl}-4-(3-cyano-4-fluorophenyl)-2-methylpiperazine-1-carboxamide]
  Ki: 0.01 to 0.1 µM

## C[C@@H]1CN(c2ccc(OC(F)(F)F)c(C#N)c2)CCN1C(=O)NCCN1CCN(Cc2ccccc2)CC1 [7-3, (2R)-N-[2-(4-benzylpiperazin-1-yl)ethyl]-4-[3-cyano-4-(trifluoromethoxy)phenyl]-2-methylpiperazine-1-carboxamide]
  Ki: 0.01 to 0.1 µM

## C[C@@H]1CN(c2cc(F)cc(C#N)c2)CCN1C(=O)NC[C@H](O)C1CCN(Cc2ccccc2)CC1 [7-4, (2R)-N-[(2R)-2-(1-benzylpiperidin-4-yl)-2-hydroxyethyl]-4-(3-cyano-5-fluorophenyl)-2-methylpiperazine-1-carboxamide]
  Ki: 0.01 to 0.1 µM

## C[C@@H]1CN(c2cc(F)c(F)c(F)c2)CCN1C(=O)NCC[C@H]1CCN(Cc2ccccc2)C1 [7-5, (2R)-N-{2-[(3S)-1-benzylpyrrolidin-3-yl]ethyl}-2-methyl-4-(3,4,5-trifluorophenyl)piperazine-1-carboxamide]
  Ki: 0.1 to 1 µM

## C[C@@H]1CN(c2cc(F)c(F)c(F)c2)CCN1C(=O)NCCN1CCN(Cc2ccccc2)CC1 [7-6, (2R)-N-[2-(4-benzylpiperazin-1-yl)ethyl]-2-methyl-4-(3,4,5-trifluorophenyl)piperazine-1-carboxamide]
  Ki: 0.1 to 1 µM

## C[C@@H]1CN(c2cc(F)c(F)c(F)c2)CCN1C(=O)NCCN1CCC(O)(Cc2ccccc2)CC1 [7-7, (2R)-N-[2-(4-benzyl-4-hydroxypiperidin-1-yl)ethyl]-2-methyl-4-(3,4,5-trifluorophenyl)piperazine-1-carboxamide]
  Ki: 0.1 to 1 µM

## C[C@@H]1CN(c2cc(F)cc(C#N)c2)CCN1C(=O)NCC[C@H]1CCN(Cc2ccccc2)C1 [7-8, (2R)-N-{2-[(3S)-1-benzylpyrrolidin-3-yl]ethyl}-4-(3-cyano-5-fluorophenyl)-2-methylpiperazine-1-carboxamide]
  Ki: 0.1 to 1 µM

## C[C@@H]1CN(c2cc(F)c(F)c(F)c2)CCN1C(=O)NCCN(C)[C@@H]1C[C@H](CO)N(Cc2ccccc2)C1 [7-13, (2R)-N-(2-{[(3R,5R)-1-benzyl-5-(hydroxymethyl)pyrrolidin-3-yl](methyl)amino}ethyl)-2-methyl-4-(3,4,5-trifluorophenyl)piperazine-1-carboxamide]
  Ki: 0.1 to 1 µM

## O=C(NCCC1CCN(Cc2ccccc2)CC1)N1CCN(c2cccc(OC(F)(F)F)c2)CC1 [8-2, N-[2-(1-benzylpiperidin-4-yl)ethyl]-4-[3-(trifluoromethoxy)phenyl]piperazine-1-carboxamide]
  Ki: 0.01 to 0.1 µM

## O=C(NCCC1CCN(Cc2ccccc2)CC1)N1CCC(c2cccc(C(F)(F)F)c2)CC1 [8-3, N-[2-(1-benzylpiperidin-4-yl)ethyl]-4-[3-(trifluoromethyl)phenyl]piperidine-1-carboxamide]
  Ki: 0.01 to 0.1 µM

## O=C(NCCC1CCN(Cc2ccccc2)CC1)N1CCC(c2ccc(Cl)cc2)CC1 [8-4, N-[2-(1-benzylpiperidin-4-yl)ethyl]-4-(4-chlorophenyl)piperidine-1-carboxamide]
  Ki: 0.01 to 0.1 µM

## COc1cccc(C2CCN(C(=O)NCCC3CCN(Cc4ccccc4)CC3)CC2)c1 [8-5, N-[2-(1-benzylpiperidin-4-yl)ethyl]-4-(3-methoxyphenyl)piperidine-1-carboxamide]
  Ki: 0.1 to 1 µM

## COc1ccccc1C1CCN(C(=O)NCCC2CCN(Cc3ccccc3)CC2)CC1 [8-6, N-[2-(1-benzylpiperidin-4-yl)ethyl]-4-(2-methoxyphenyl)piperidine-1-carboxamide]
  Ki: 0.1 to 1 µM

## N#Cc1cc(Cl)ccc1N1CCN(C(=O)NCCC2CCN(Cc3ccccc3)CC2)CC1 [8-7, N-[2-(1-benzylpiperidin-4-yl)ethyl]-4-(4-chloro-2-cyanophenyl)piperazine-1-carboxamide]
  Ki: 0.1 to 1 µM

## O=C(NCCC1CCN(Cc2ccccc2)CC1)N1CCN(c2ccc(OC(F)(F)F)cc2)CC1 [8-8, N-[2-(1-benzylpiperidin-4-yl)ethyl]-4-[4-(trifluoromethoxy)phenyl]piperazine-1-carboxamide]
  Ki: 0.01 to 0.1 µM

## CN(C(=O)NCCC1CCN(Cc2ccccc2)CC1)C1CCN(c2ccc(Br)cn2)C1 (stereo not drawn) [8-9, 1-[2-(1-benzylpiperidin-4-yl)ethyl]-3-[1-(5-bromopyridin-2-yl)pyrrolidin-3-yl]-3-methylurea]
  Ki: 0.01 to 0.1 µM

## O=C(NCCC1CCN(Cc2ccccc2)CC1)N1CCC(c2csc3ccccc23)CC1 [8-10, 4-(1-benzothiophen-3-yl)-N-[2-(1-benzylpiperidin-4-yl)ethyl]piperidine-1-carboxamide]
  Ki: 0.01 to 0.1 µM

## O=C(NCCC1CCN(Cc2ccccc2)CC1)N1CCN(c2cccc(Cl)c2)CC1 [8-11, N-[2-(1-benzylpiperidin-4-yl)ethyl]-4-(3-chlorophenyl)piperazine-1-carboxamide]
  Ki: 0.01 to 0.1 µM
